Assay results published in patent US11852634B2, “Use of AKT phosphorylation as a biomarker for prognosing neurodegenerative diseases and treating same” (Yeda Research and Development Co. Ltd., priority 2011, dated 2023).
Where no end group is shown, it is not given here.

System: healthy mice
Experiment: Repeated-dose safety in healthy mice
Assay type: in vivo
Settings: dose four times higher than the effective dose, daily, for 28 days
Description: Accordingly, the peptide of the invention is suitable for chronic use. In addition, the peptide of the invention was shown effective when administered intravenously (IV), intraperitoneally (IP) or in combination of these two modes of delivery.

LPPLPYP [SEQ ID NO: 1, LPPLPYP] was tested, and the Side effects was “did not initiate any detectable side effect”.
